# Measurements reported in publication PMC11224556, “Next-generation of BBQ analogues that selectively target breast cancer” (Frontiers in Chemistry, 2024).
# Target: T1, AhR (Homo sapiens, UniProt P35869)
# T1 construct: This cell line stably expresses the secreted Lucia luciferase reporter gene under the control of a minimal promoter; host or cells: HT29-Lucia AhR reporter cells
# T1 sequence (P35869 11-848): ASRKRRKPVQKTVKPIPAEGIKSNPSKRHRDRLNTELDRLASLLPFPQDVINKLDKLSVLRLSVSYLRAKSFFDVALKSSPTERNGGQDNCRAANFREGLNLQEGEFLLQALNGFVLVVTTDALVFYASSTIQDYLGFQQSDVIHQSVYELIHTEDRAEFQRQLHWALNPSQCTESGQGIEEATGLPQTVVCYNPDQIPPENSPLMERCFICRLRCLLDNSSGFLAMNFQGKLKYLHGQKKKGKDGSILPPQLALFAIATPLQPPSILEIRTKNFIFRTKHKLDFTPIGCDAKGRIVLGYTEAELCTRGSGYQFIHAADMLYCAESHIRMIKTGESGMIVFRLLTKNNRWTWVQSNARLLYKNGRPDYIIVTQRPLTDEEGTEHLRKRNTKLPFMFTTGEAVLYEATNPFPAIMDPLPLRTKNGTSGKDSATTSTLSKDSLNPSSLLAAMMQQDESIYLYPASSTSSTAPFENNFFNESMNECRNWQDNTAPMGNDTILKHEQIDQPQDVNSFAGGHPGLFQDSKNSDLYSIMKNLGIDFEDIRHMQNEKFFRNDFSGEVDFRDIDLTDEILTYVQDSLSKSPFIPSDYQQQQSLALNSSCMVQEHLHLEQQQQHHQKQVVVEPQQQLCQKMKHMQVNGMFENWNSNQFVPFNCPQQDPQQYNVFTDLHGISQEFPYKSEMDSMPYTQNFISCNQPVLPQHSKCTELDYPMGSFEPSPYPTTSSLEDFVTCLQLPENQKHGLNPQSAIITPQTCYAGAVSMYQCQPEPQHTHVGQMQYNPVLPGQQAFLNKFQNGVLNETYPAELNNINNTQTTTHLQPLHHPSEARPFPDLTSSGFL
# Experiment: AhR transcription reporter assay (HT29-Lucia AhR cells)
# Type: cell-based
# Details: 1 µM, 24 h, relative to DMSO
# Description: Our previous studies have shown that the activity of NAP-6 (2) and 10-Cl-BBQ (3) required the activation of the AhR pathway and the induction of CYP1 family of phase I metabolising enzymes ([Gilbert et al., 2020]; [Baker et al., 2021a]). Therefore, we sought to determine the activation of AhR using a stable AhR reporter assay in HT29-Lucia™ AhR cells, in the presence of each BBQ analogue (Figure 3). Activation of the AhR was indicated by enhanced luminescence caused by the translocation of the AhR to the nucleus of the cell and interaction with the xenobiotic response elements imbedded in the luciferase gene.
# Stock solutions were prepared as follows and stored as 20 mM DMSO solutions at −20 °C. All cell lines were cultured in a humidified atmosphere 5% CO2 at 37 °C. The cancer cell lines were maintained in Dulbecco’s modified Eagle’s medium (DMEM) (Trace Biosciences, Australia) supplemented with 10% foetal bovine serum (FBS), 10 mM sodium bicarbonate, penicillin (100 IU/mL), streptomycin (100 μg/mL), and glutamine (4 mM). The non-cancer MCF10A cell line was cultured in DMEM:F12 (1:1) cell culture media, 5% heat inactivated horse serum, supplemented with penicillin (50 IU/mL), streptomycin (50 μg/mL), 20 mM Hepes, L-glutamine (2 mM), epidermal growth factor (20 ng/mL), hydrocortisone (500 ng/mL), cholera toxin (100 ng/mL), and insulin (10 μg/mL). The AhR reporter cell line HT29-Lucia™ (Invivogen, United States) was maintained in DMEM supplemented with 10% heat inactivated FBS, L-glutamine (2 mM), penicillin (100 IU/mL), streptomycin (100 μg/mL), 100 μg/mL Normocin™, and 100 μg/mL of the selective antibiotic Zeocin™. All cell lines were purchased from the American Type Culture Collection (ATCC), except for A2780 and A431 which were from the European Collection of Authenticated Cell Cultures (ECACC), and SJ-G2 cell line which was from Dr Mary Danks, St Jude Children’s Research hospital, Memphis, TN.
# The activity of the AhR signalling pathway was measured using the stably transfected AhR cell line, HT29-Lucia™ (Invivogen, United States). This cell line stably expresses the secreted Lucia luciferase reporter gene under the control of a minimal promoter coupled with the human CYP1A1 gene entire regulatory sequence, containing six DREs. The Lucia luciferase reporter protein is readily measurable in the cell culture supernatant using QUANTI-Luc™. For the determination of AhR activity, 4 × 10^4 cells in 180 μL was plated into each well of a 96 well micro-titre plate in the absence of antibiotics and allowed to culture for 24 h prior to the addition of test compounds in a volume of 20 μL. At the indicated time, 20 μL of cell supernatant was transferred to a white luminometer plate and 50 µL of QUANTI-Luc was added immediately prior to reading the luminescence using a GloMax Explorer Luminescence Plate Reader. The promoter activity was conducted in duplicate and the values expressed as fold-change relative to DMSO (0.1%) treated cells. The AhR ligand, FICZ (6-formylindolo[3,2-b]carbazole) and AhR inhibitor CH223191 were included for study as positive and negative controls, respectively. […] Results are presented as the mean ± standard error of the mean (SEM) of analysis conducted in duplicate and repeated on three separate occasions.
row,Molecule,"AhR activation, Fold Reporter Induction [fold]"
1,"3-Chloro-7H-benzo[de]benzo[4,5]imidazo[2,1-a]isoquinolin-7-one (10a) and 4-chloro-7H-benzo[de]benzo[4,5]imidazo[2,1-a]isoquinolin-7-one (10b) [Compound 10]",2.7
2,"3-Nitro-7H-benzo[de]benzo[4,5]imidazo[2,1-a]isoquinolin-7-one (11a) and 4-nitro-7H-benzo[de]benzo[4,5]imidazo[2,1-a]isoquinolin-7-one (11b) [Compound 11]",10.2
3,"7-Oxo-7H-benzo[de]benzo[4,5]imidazo[2,1-a]isoquinoline-10-carbonitrile (9a) and 7-oxo-7H-benzo[de]benzo[4,5]imidazo[2,1-a]isoquinoline-11-carbonitrile (9b) [Compound 9]",2.5
4,"9-Methyl-7H-benzo[de]benzo[4,5]imidazo[2,1-a]isoquinolin-7-one (8a) and 12-methyl-7H-benzo[de]benzo[4,5]imidazo[2,1-a]isoquinolin-7-one (8b) [Compound 8]",2.5
5,"10-Methyl-7H-benzo[de]benzo[4,5]imidazo[2,1-a]isoquinolin-7-one (7a) and 11-methyl-7H-benzo[de]benzo[4,5]imidazo[2,1-a]isoquinolin-7-one (7b) [Compound 7]",2.8
6,"Nc1ccccc1N1C(=O)c2cccc3cccc(c23)C1=O [Compound 2, 2-(2-aminophenyl)-1H-benzo[de]isoquinoline-1,3(2H)-dione]",1.8
7,"O=c1c2cccc3cccc(c32)c2nc3ccc(Cl)cc3n12 [Compound 3, 10-Chloro-7H-benzo[de]benzo[4,5]imidazo[2,1-a]isoquinolin-7-one]",2.7
8,"O=c1c2cccc3cccc(c32)c2nc3cc(Cl)ccc3n12 [Compound 4, 11-Chloro-7H-benzo[de]benzo[4,5]imidazo[2,1-a]isoquinolin-7-one]",2.9
9,"O=c1c2cccc3cccc(c32)c2nc3ccccc3n12 [Compound 5, 7H-Benzo[de]benzo[4,5]imidazo[2,1-a]isoquinolin-7-one]",3.1
10,"O=c1c2ccccc2cc2[nH]c3ccccc3n12 [Compound 12, Benzo[4,5]imidazo[1,2-b]isoquinolin-11(5H)-one]",1.2
11,"O=c1c2cccc3cccc(c4n1Cc1ccccc1N=4)c32 [Compound 13, 7H,9H-benzo[4,5]isoquinolino[1,2-b]quinazolin-7-one]",1.8
12,"O=C(O)c1ccc2c3c1cccc3c(=O)n1c3ccccc3nc21 [Compound 14, reference compound]",1.5
